Reference: the NIST ThermoML archive (doi:10.1021/je900596d)
Numbers after ± are expanded uncertainties.

Details: 263.49 K, Liquid, Vibrating tube method

FC(F)=C(F)C(F)(F)F [hexafluoropropene]
Details	mass density [kg/m3]
4757 kPa	1484.43 ± 1.5
4816.4 kPa	1484.73 ± 1.5
4881.5 kPa	1484.9 ± 1.5
4946.3 kPa	1485.39 ± 1.5
5104.8 kPa	1485.97 ± 1.5
5190.1 kPa	1486.45 ± 1.5
5273.8 kPa	1486.72 ± 1.5
5369.3 kPa	1487.1 ± 1.5
5456.3 kPa	1487.53 ± 1.5
5538.4 kPa	1487.84 ± 1.5
5622.6 kPa	1488.18 ± 1.5
5711.1 kPa	1488.61 ± 1.5
5793.3 kPa	1489.06 ± 1.5
5877.9 kPa	1489.31 ± 1.5
5963.2 kPa	1489.67 ± 1.5
6047.6 kPa	1490.11 ± 1.5
6129.9 kPa	1490.42 ± 1.5
6210.8 kPa	1490.7 ± 1.5
6292.4 kPa	1491.15 ± 1.5
6372.6 kPa	1491.45 ± 1.5
6452.8 kPa	1491.79 ± 1.5
6538.6 kPa	1492.18 ± 1.5
6628.4 kPa	1492.5 ± 1.5
6710.5 kPa	1492.84 ± 1.5
6798.1 kPa	1493.29 ± 1.5
6878.8 kPa	1493.62 ± 1.5
6965.4 kPa	1493.98 ± 1.5
7052.5 kPa	1494.32 ± 1.5
7137.8 kPa	1494.61 ± 1.5
7224.6 kPa	1495 ± 1.5
7315.1 kPa	1495.44 ± 1.5
7400.9 kPa	1495.77 ± 1.5
7483.2 kPa	1496.09 ± 1.5
7573.2 kPa	1496.53 ± 1.5
7663 kPa	1496.86 ± 1.5
7746.1 kPa	1497.24 ± 1.5
7835.3 kPa	1497.57 ± 1.5
7920.3 kPa	1497.86 ± 1.5
8008.2 kPa	1498.24 ± 1.5
8089.2 kPa	1498.57 ± 1.5
8180.4 kPa	1498.95 ± 1.6
8262.3 kPa	1499.34 ± 1.6
8343 kPa	1499.65 ± 1.6
8431 kPa	1499.96 ± 1.6
8519.4 kPa	1500.29 ± 1.6
8604.9 kPa	1500.75 ± 1.6
8687 kPa	1500.96 ± 1.6
8773.6 kPa	1501.36 ± 1.6
8859.6 kPa	1501.69 ± 1.6
8940.8 kPa	1502.04 ± 1.6
9033.4 kPa	1502.38 ± 1.6
9121.4 kPa	1502.79 ± 1.6
9202.4 kPa	1503.09 ± 1.6
9288.6 kPa	1503.44 ± 1.6
9371.7 kPa	1503.79 ± 1.6
9460.9 kPa	1504.15 ± 1.6
9501.4 kPa	1504.21 ± 1.6
9543.4 kPa	1504.4 ± 1.6
9588.9 kPa	1504.56 ± 1.6
9629.7 kPa	1504.74 ± 1.6
9675.2 kPa	1504.91 ± 1.6
9717.5 kPa	1505.02 ± 1.6
9760.3 kPa	1505.19 ± 1.6
9806 kPa	1505.39 ± 1.6
9849.5 kPa	1505.65 ± 1.6
9893.1 kPa	1505.74 ± 1.6
9933.7 kPa	1505.89 ± 1.6
